Broadly, the pIC50 is the negative decadic logarithm of the IC50, by convention in mol/L.

Our source for the IC50 values is US20250051337A1 (priority 2021, published 2025).

Structures are written as SMILES. pIC50: −log10 of the molar value. Like-named read-outs stand apart in the source and are kept apart here. Some results are limits rather than exact numbers.

One test deals with STK4 (Homo sapiens (Human), UniProt Q13043). The test can be described thus: ADP-Glo kinase assay, STK4. Type of test: biochemical. The conditions noted are these: ADP-Glo, 50 μM ATP; read-out: STK4 IC50. As for the experimental part:
(§1) The STK3 kinase assay was performed in 5 μL reaction buffer containing 50 ng recombinant human STK3 protein (full length, SignalChem #S24-10G; Richmond, Canada), 250 μg/mL myelin basic protein (Sigma-Aldrich #M1891; St. Louis, MO, USA), and 50 μM ATP (Sigma-Aldrich #A7699). The STK4 kinase assay was performed in 5 μL reaction buffer containing 50 ng recombinant human STK4 protein (full length, SignalChem #S25-10G), 300 μg/mL Axltide (SignalChem #A16-58), and 50 μM ATP. […] Three experiments were performed, each in triplicate.
For orientation: In ADP-Glo the light output rises with the ADP produced.

A further test has as its target STK3 (Homo sapiens (Human), UniProt Q13188). The test can be described thus: ADP-Glo kinase assay, STK3. Format: biochemical. How it is done: as §1
Where [1] appears, read: ADP-Glo, 50 μM ATP, read-out: STK3 IC50.

Chain of STK3 (Q13188 whole entry): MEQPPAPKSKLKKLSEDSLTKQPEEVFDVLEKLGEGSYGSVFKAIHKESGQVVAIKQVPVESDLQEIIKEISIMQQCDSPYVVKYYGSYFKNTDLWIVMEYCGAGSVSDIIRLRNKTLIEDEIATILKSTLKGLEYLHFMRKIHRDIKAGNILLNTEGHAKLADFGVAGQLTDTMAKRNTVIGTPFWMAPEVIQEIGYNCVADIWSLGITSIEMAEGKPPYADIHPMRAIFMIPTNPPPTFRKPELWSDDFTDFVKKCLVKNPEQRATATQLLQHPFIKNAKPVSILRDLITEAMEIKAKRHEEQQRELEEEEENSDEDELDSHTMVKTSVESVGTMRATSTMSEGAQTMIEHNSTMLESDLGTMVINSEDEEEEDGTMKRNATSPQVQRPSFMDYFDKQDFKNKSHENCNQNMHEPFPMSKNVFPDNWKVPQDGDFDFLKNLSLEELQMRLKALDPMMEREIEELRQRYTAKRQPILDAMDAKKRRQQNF
Chain of STK4 (Q13043 whole entry): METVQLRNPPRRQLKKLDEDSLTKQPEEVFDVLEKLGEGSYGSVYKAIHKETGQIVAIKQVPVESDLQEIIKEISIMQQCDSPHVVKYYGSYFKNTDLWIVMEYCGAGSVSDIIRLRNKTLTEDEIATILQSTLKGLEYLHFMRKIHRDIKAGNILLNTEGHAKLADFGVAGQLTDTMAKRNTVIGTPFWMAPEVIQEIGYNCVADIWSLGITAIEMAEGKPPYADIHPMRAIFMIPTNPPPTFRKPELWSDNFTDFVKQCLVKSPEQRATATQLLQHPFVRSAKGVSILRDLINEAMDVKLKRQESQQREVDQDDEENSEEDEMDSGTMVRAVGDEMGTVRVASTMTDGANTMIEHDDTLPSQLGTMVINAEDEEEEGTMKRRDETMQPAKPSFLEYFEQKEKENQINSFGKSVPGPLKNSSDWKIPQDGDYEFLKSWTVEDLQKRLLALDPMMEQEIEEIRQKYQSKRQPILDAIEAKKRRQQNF

With `Clc1cccc(-c2c[nH]c3ncnc(NCCC(c4ccccc4)c4ccccc4)c23)c1` [Compound 88, 5-(3-chlorophenyl)-N-(3,3-diphenylpropyl)-7H-pyrrolo[2,3-d]pyrimidin-4-amine], the pIC50 at STK4 and on STK3 (setting [1]) was < 5.30 throughout.

On to `Clc1cccc(-c2c[nH]c3ncnc(N4CCN(c5ccccc5)CC4)c23)c1` [Compound 89, 5-(3-chlorophenyl)-4-(4-phenylpiperazin-1-yl)-7H-pyrrolo[2,3-d]pyrimidine], for which the pIC50 at STK4 and on STK3 (setting [1]) was < 5.30 each time.

As to `Clc1cccc(-c2c[nH]c3ncnc(N4CCC(Cc5ccccc5)CC4)c23)c1` [Compound 90, 4-(4-benzylpiperidin-1-yl)-5-(3-chlorophenyl)-7H-pyrrolo[2,3-d]pyrimidine], the pIC50 on STK4 and on STK3 (setting [1]) was < 5.30 each time.

In the case of `Cc1cccc(CNc2ncnc3[nH]cc(-c4cccc(Cl)c4)c23)c1` [Compound 91, 5-(3-chlorophenyl)-N-(3-methylbenzyl)-7H-pyrrolo[2,3-d]pyrimidin-4-amine], the pIC50 on STK4 and on STK3 (setting [1]) was < 5.30 each time.

Consider `Clc1cccc(-c2coc3nccc(N4CCOCC4)c23)c1` [Compound 94, 3-(3-chlorophenyl)-4-morpholinofuro[2,3-b]pyridine], for which the pIC50 at STK4 and at STK3 (setting [1]) was < 5.30 each time.

For the molecule `Cn1cc(-c2cccc(Cl)c2)c2c(N3CCOCC3)ncnc21` [Compound 95, 4-(5-(3-chlorophenyl)-7-methyl-7H-pyrrolo[2,3-d]pyrimidin-4-yl)morpholine], the pIC50 at STK4 and at STK3 (setting [1]) was < 5.30 in each case.

Regarding `NS(=O)(=O)c1ccc(Nc2nc(N3CCOCC3)c3c(-c4cccc(Cl)c4)c[nH]c3n2)cc1` [Compound 96, 4-((5-(3-chlorophenyl)-4-morpholino-7H-pyrrolo[2,3-d]pyrimidin-2-yl)amino)benzenesulfonamide], the pIC50 was > 6.00 at STK4 and 5.30 to 6.00 on STK3 (setting [1]).

As to `C=CC(=O)Cc1nc(N2CCOCC2)c2c(-c3cccc(Cl)c3)c[nH]c2n1` [Compound 97, 1-(5-(3-chlorophenyl)-4-morpholino-7H-pyrrolo[2,3-d]pyrimidin-2-yl)but-3-en-2-one], the pIC50 on STK4 and on STK3 (setting [1]) was < 5.30 in each case.

As for `CNS(=O)(=O)c1ccc(Nc2nc(N3CCOCC3)c3c(-c4cccc(Cl)c4)c[nH]c3n2)cc1` [Compound 98, 4-((5-(3-chlorophenyl)-4-morpholino-7H-pyrrolo[2,3-d]pyrimidin-2-yl)amino)-N-methylbenzenesulfonamide], the pIC50 on STK4 and on STK3 (setting [1]) was > 6.00 each time.

Turning to `COC(=O)c1ccc(Nc2nc(N3CCOCC3)c3c(-c4cccc(Cl)c4)c[nH]c3n2)cc1` [Compound 99, methyl 4-((5-(3-chlorophenyl)-4-morpholino-7H-pyrrolo[2,3-d]pyrimidin-2-yl)amino)benzoate], the pIC50 at STK4 and on STK3 (setting [1]) was < 5.30 in each case.

As to `O=C(O)c1ccc(Nc2nc(N3CCOCC3)c3c(-c4cccc(Cl)c4)c[nH]c3n2)cc1` [Compound 100, 4-((5-(3-chlorophenyl)-4-morpholino-7H-pyrrolo[2,3-d]pyrimidin-2-yl)amino)benzoic acid], the pIC50 on STK4 is > 6.00; at STK3 (setting [1]) it was 5.30 to 6.00.

Regarding `O=[N+]([O-])c1ccc(Nc2nc(N3CCOCC3)c3c(-c4cccc(Cl)c4)c[nH]c3n2)cc1` [Compound 101, 5-(3-chlorophenyl)-4-morpholino-N-(4-nitrophenyl)-7H-pyrrolo[2,3-d]pyrimidin-2-amine], the pIC50 on STK4 and at STK3 (setting [1]) was < 5.30 in each case.

As to `CC(O)CNc1ncnc2[nH]cc(-c3cccc(Cl)c3)c12` (stereo not drawn) [Compound 104, 1-((5-(3-chlorophenyl)-7H-pyrrolo[2,3-d]pyrimidin-4-yl)amino)propan-2-ol], the pIC50 on STK4 and at STK3 (setting [1]) was > 6.00 throughout.

Take `CN(C)C1CCN(c2ncnc3[nH]cc(-c4cccc(Cl)c4)c23)CC1` [Compound 107, 1-(5-(3-chlorophenyl)-7H-pyrrolo[2,3-d]pyrimidin-4-yl)-N,N-dimethylpiperidin-4-amine]: the pIC50 at STK4 and on STK3 (setting [1]) was > 6.00 throughout.

With `CC1CCN(c2ncnc3[nH]cc(-c4cccc(Cl)c4)c23)CC1` [Compound 109, 5-(3-chlorophenyl)-4-(4-methylpiperidin-1-yl)-7H-pyrrolo[2,3-d]pyrimidine], the pIC50 at STK4 and at STK3 (setting [1]) was > 6.00 in each case.

Regarding `COC1CCN(c2ncnc3[nH]cc(-c4cccc(Cl)c4)c23)CC1` [Compound 110, 5-(3-chlorophenyl)-4-(4-methoxypiperidin-1-yl)-7H-pyrrolo[2,3-d]pyrimidine], the pIC50 at STK4 and at STK3 (setting [1]) was > 6.00 in each case.

`CCCCNc1ncnc2[nH]cc(-c3cccc(Cl)c3)c12` [Compound 116, N-butyl-5-(3-chlorophenyl)-7H-pyrrolo[2,3-d]pyrimidin-4-amine]: the pIC50 on STK4 and at STK3 (setting [1]) was > 6.00 in each case.

Take `CC(CO)CNc1ncnc2[nH]cc(-c3cccc(Cl)c3)c12` (stereo not drawn) [Compound 117, 3-((5-(3-chlorophenyl)-7H-pyrrolo[2,3-d]pyrimidin-4-yl)amino)-2-methylpropan-1-ol]: the pIC50 at STK4 and on STK3 (setting [1]) was > 6.00 each time.

For the molecule `O=C1CCN(c2ncnc3[nH]cc(-c4cccc(Cl)c4)c23)CC1` [Compound 118, 1-(5-(3-chlorophenyl)-7H-pyrrolo[2,3-d]pyrimidin-4-yl)piperidin-4-one], the pIC50 was > 6.00 at STK4 and 5.30 to 6.00 against STK3.

`N#Cc1ccc(Nc2nc(N3CCOCC3)c3c(-c4cccc(Cl)c4)c[nH]c3n2)cc1` [Compound 120, 4-((5-(3-chlorophenyl)-4-morpholino-7H-pyrrolo[2,3-d]pyrimidin-2-yl)amino)benzonitrile]: the pIC50 at STK4 and on STK3 (setting [1]) was < 5.30 each time.

In the case of `COCC(C)CN(C)c1ncnc2[nH]cc(-c3cccc(Cl)c3)c12` (stereo not drawn) [Compound 122, 5-(3-chlorophenyl)-N-(3-methoxy-2-methylpropyl)-N-methyl-7H-pyrrolo[2,3-d]pyrimidin-4-amine], the pIC50 at STK4 and on STK3 (setting [1]) was 5.30 to 6.00 each time.

For the molecule `COCC(C)CNc1ncnc2[nH]cc(-c3cccc(Cl)c3)c12` (stereo not drawn) [Compound 123, 5-(3-chlorophenyl)-N-(3-methoxy-2-methylpropyl)-7H-pyrrolo[2,3-d]pyrimidin-4-amine], the pIC50 on STK4 and at STK3 (setting [1]) was > 6.00 in each case.

On to `CC(=O)NC1(C)CCN(c2ncnc3[nH]cc(-c4cccc(Cl)c4)c23)CC1` [Compound 124, N-(1-(5-(3-chlorophenyl)-7H-pyrrolo[2,3-d]pyrimidin-4-yl)-4-methylpiperidin-4-yl)acetamide], for which the pIC50 at STK4 and on STK3 (setting [1]) was 5.30 to 6.00 throughout.

As to `CC(CNc1ncnc2[nH]cc(-c3cccc(Cl)c3)c12)C(N)=O` (stereo not drawn) [Compound 125, 3-((5-(3-chlorophenyl)-7H-pyrrolo[2,3-d]pyrimidin-4-yl)amino)-2-methylpropanamide], the pIC50 at STK4 and on STK3 (setting [1]) was > 6.00 each time.

Regarding `CC(CNc1ncnc2[nH]cc(-c3cccc(Cl)c3)c12)C(=O)O` (stereo not drawn) [Compound 126, 3-((5-(3-chlorophenyl)-7H-pyrrolo[2,3-d]pyrimidin-4-yl)amino)-2-methylpropanoic acid], the pIC50 on STK4 and at STK3 (setting [1]) was 5.30 to 6.00 each time.

As for `CC(CN)CNc1ncnc2[nH]cc(-c3cccc(Cl)c3)c12` (stereo not drawn) [Compound 127, N^1-(5-(3-chlorophenyl)-7H-pyrrolo[2,3-d]pyrimidin-4-yl)-2-methylpropane-1,3-diamine], the pIC50 at STK4 and on STK3 (setting [1]) was > 6.00 throughout.

Take `CC(=O)N(C)CC(C)CN(C)c1ncnc2[nH]cc(-c3cccc(Cl)c3)c12` (stereo not drawn) [Compound 128]: the pIC50 on STK4 is 5.30 to 6.00; on STK3 (setting [1]) it was > 6.00.

Turning to `CC(=O)NCC(C)CNc1ncnc2[nH]cc(-c3cccc(Cl)c3)c12` (stereo not drawn) [Compound 129, N-(3-((5-(3-chlorophenyl)-7H-pyrrolo[2,3-d]pyrimidin-4-yl)amino)-2-methylpropyl)acetamide], the pIC50 at STK4 and on STK3 (setting [1]) was > 6.00 each time.

Take `CC(=O)NCC(C)CNc1ncnc2[nH]cc(-c3ccccc3)c12` (stereo not drawn) [Compound 130, N-(2-methyl-3-((5-phenyl-7H-pyrrolo[2,3-d]pyrimidin-4-yl)amino)propyl)acetamide]: the pIC50 at STK4 and on STK3 (setting [1]) was 5.30 to 6.00 each time.

As for `CNCC(C)CNc1ncnc2[nH]cc(-c3cccc(Cl)c3)c12` (stereo not drawn) [Compound 131, N^1-(5-(3-chlorophenyl)-7H-pyrrolo[2,3-d]pyrimidin-4-yl)-N^3,2-dimethylpropane-1,3-diamine], the pIC50 at STK4 and on STK3 (setting [1]) was < 5.30 in each case.
